Measurements from US8969362B2 (priority 2004, dated 2015).

tested on: rat spleen cells; assay: cells; assay type: cell-based; conditions: 24 h, read-out: Minimum effective concentration (interferon inducing activity)

Row | SMILES | minimal effective concentration [µM]
1 | CCCCOc1nc(N)c2[nH]c(=O)n(CCOc3cccc(C(=O)O)c3)c2n1 [Comparison Example 1, 2-butoxy-8-oxo-9-[2-(3-hydroxycarbonylphenoxy)ethyl]adenine, reference compound] | 0.01
2 | CCCCOc1nc(N)c2[nH]c(=O)n(CCOc3cccc(CC(=O)O)c3)c2n1 [Comparison Example 2, 2-butoxy-8-oxo-9-[2-(3-hydroxycarbonylmethylphenoxy)ethyl]adenine, reference compound] | 0.03
3 | CCCCOc1nc(N)c2[nH]c(=O)n(CCOc3ccccc3C(=O)O)c2n1 [Comparison Example 3, 2-butoxy-8-oxo-9-[2-(2-hydroxycarbonylphenoxy)ethyl]adenine, reference compound] | 0.1
4 | CCCCOc1nc(N)c2[nH]c(=O)n(CCOc3ccccc3CC(=O)O)c2n1 [Comparison Example 4, 2-butoxy-8-oxo-9-[2-(2-hydroxycarbonylmethylphenoxy)ethyl]adenine, reference compound] | 0.1
5 | CCCCOc1nc(N)c2[nH]c(=O)n(CCCCNS(=O)(=O)c3cccc(C(=O)O)c3)c2n1 [Comparison Example 8, 2-butoxy-8-oxo-9-[4-(3-hydroxycarbonylbenzenesulfonamide)butyl]adenine, reference compound] | 0.1
6 | CCCCOc1nc(N)c2nc(O)n(CCCCNS(=O)(=O)c3cccc(CC(=O)O)c3)c2n1 [Comparison Example 9, 2-butoxy-8-oxo-9-[4-(3-hydroxycarbonylmethylbenzenesulfonamide)butyl]adenine, reference compound] | 0.3
7 | CCCCOc1nc(N)c2[nH]c(=O)n(CCCCNC(=O)Nc3cccc(C(=O)O)c3)c2n1 [Comparison Example 10, 2-butoxy-8-oxo-9-[4-(3-hydroxycarbonylphenylaminocarbonylamino)butyl]adenine, reference compound] | 0.3
8 | CCCCOc1nc(N)c2[nH]c(=O)n(CCCCNC(=O)Nc3cccc(CC(=O)O)c3)c2n1 [Comparison Example 11, 2-butoxy-8-oxo-9-[4-(3-hydroxycarbonylmethylphenylaminocarbonylamino)butyl]adenine, reference compound] | 0.1
9 | CCCCOc1nc(N)c2[nH]c(=O)n(CCCCNC(=O)Nc3cccc(CC(=O)OC)c3)c2n1 [Example 11, 2-butoxy-8-oxo-9-[4-(3-methoxycarbonylmethylphenylaminocarbonylamino)butyl]adenine] | 0.01

tested on: not given; assay: not given; conditions: not given

Row | SMILES | melting point [°C]
10 | CCCCOc1nc(N)c2[nH]c(=O)n(CCCNCc3cccc(C(=O)OC)c3)c2n1 [Example 2-3, Methyl 3-({[3-(6-amino-2-butoxy-8-oxo-7,8-dihydro-9H-purin-9-yl)propyl]amino}methyl)benzoate] | 214 to 218
11 | CCCCOc1nc(N)c2[nH]c(=O)n(CCCCNS(=O)(=O)c3ccc(CCC(=O)OC)cc3)c2n1 [Example 2-11, Methyl 3-[4-({[4-(6-amino-2-butoxy-8-oxo-7,8-dihydro-9H-purin-9-yl)butyl]amino}sulfonyl)phenyl]propanoate] | 150 to 152
12 | CCCCOc1nc(N)c2[nH]c(=O)n(CCCCNS(=O)(=O)c3ccc(CCC(=O)O)cc3)c2n1 [Example 2-12, 3-[4-({[4-(6-Amino-2-butoxy-8-oxo-7,8-dihydro-9H-purin-9-yl)butyl]amino}sulfonyl)phenyl]propionic acid] | 210 to 211
13 | CCCCOc1nc(N)c2[nH]c(=O)n(CCCCN(CCN3CCCC3)S(=O)(=O)c3cccc(CC(=O)O)c3)c2n1 [Example 2-14, (3-{[[4-(6-Amino-2-butoxy-8-oxo-7,8-dihydro-9H-purin-9-yl)butyl](2-pyrrolidin-1-ylethyl)amino]sulfonyl}phenyl)acetic acid] | 192 to 193
14 | CCCCOc1nc(N)c2[nH]c(=O)n(CCCCN(CCOC)S(=O)(=O)c3cccc(CC(=O)OC)c3)c2n1 [Example 2-15, Methyl (3-{[[4-(6-amino-2-butoxy-8-oxo-7,8-dihydro-9H-purin-9-yl)butyl](2-methoxyethyl)amino]sulfonyl}phenyl)acetate] | 182 to 183
15 | CCCCOc1nc(N)c2[nH]c(=O)n(CCCCN(CCOC)S(=O)(=O)c3cccc(CC(=O)O)c3)c2n1 [Example 2-16, (3-{[[4-(6-Amino-2-butoxy-8-oxo-7,8-dihydro-9H-purin-9-yl)butyl](2-methoxyethyl)amino]sulfonyl}phenyl)acetic acid] | 171 to 172
16 | CCCCOc1nc(N)c2[nH]c(=O)n(CCCCN(C)S(=O)(=O)c3cccc(CC(=O)O)c3)c2n1 [Example 2-18, (3-{[[4-(6-Amino-2-butoxy-8-oxo-7,8-dihydro-9H-purin-9-yl)butyl](methyl)amino]sulfonyl}phenyl)acetic acid] | 171 to 172
17 | CCCCOc1nc(N)c2[nH]c(=O)n(CCCCN(CC(C)(C)CN(C)C)S(=O)(=O)c3cccc(CC(=O)O)c3)c2n1 [Example 2-20, [3-({[4-(6-Amino-2-butoxy-8-oxo-7,8-dihydro-9H-purin-9-yl)butyl][3-(dimethylamino)-2,2-dimethylpropyl]amino}sulfonyl)phenyl]acetic acid] | 175 to 176
18 | CCCCOc1nc(N)c2[nH]c(=O)n(CCCNS(=O)(=O)c3cccc(CC(=O)OC)c3)c2n1 [Example 2-21, Methyl [3-({[3-(6-amino-2-butoxy-8-oxo-7,8-dihydro-9H-purin-9-yl)propyl]amino}sulfonyl)phenyl]acetate] | 218 to 219
19 | CCCCOc1nc(N)c2[nH]c(=O)n(CCCCN(CC(C)(C)O)S(=O)(=O)c3cccc(CC(=O)OC)c3)c2n1 [Example 2-22, Methyl (3-{[[4-(6-amino-2-butoxy-8-oxo-7,8-dihydro-9H-purin-9-yl)butyl](2-hydroxy-2-methylpropyl)amino]sulfonyl}phenyl)acetate] | 192 to 193
20 | CCCCOc1nc(N)c2[nH]c(=O)n(CCCCN(Cc3cccc(CC(=O)O)c3)CC(C)(C)CN(C)C)c2n1 [Example 2-32, [3-({[4-(6-Amino-2-butoxy-8-oxo-7,8-dihydro-9H-purin-9-yl)butyl][3-(dimethylamino)-2,2-dimethylpropyl]amino}methyl)phenyl]acetic acid] | 189 to 190
21 | CCCCOc1nc(N)c2[nH]c(=O)n(CCCCN(CCCN3CCCC3=O)Cc3cccc(CC(=O)OC)c3)c2n1 [Example 2-33, Methyl [3-({[4-(6-amino-2-butoxy-8-oxo-7,8-dihydro-9H-purin-9-yl)butyl][3-(2-oxopyrrolidin-1-yl)propyl]amino}methyl)phenyl]acetate] | 115 to 116
22 | CCCCOc1nc(N)c2[nH]c(=O)n(CCCCN(CCN3CCOCC3)Cc3cccc(CC(=O)OC)c3)c2n1 [Example 2-35, Methyl (3-{[[4-(6-amino-2-butoxy-8-oxo-7,8-dihydro-9H-purin-9-yl)butyl](2-morpholin-4-ylethyl)amino]methyl}phenyl)acetate] | 189 to 190
23 | CCCCOc1nc(N)c2[nH]c(=O)n(CCSc3cccc(CC(=O)OC)c3)c2n1 [Example 2-39, Methyl (3-{[2-(6-amino-2-butoxy-8-oxo-7,8-dihydro-9H-purin-9-yl)ethyl]thio}phenyl)acetate] | 232 to 233
24 | CCCCOc1nc(N)c2[nH]c(=O)n(CCSc3cccc(CC(=O)O)c3)c2n1 [Example 2-40, (3-{[2-(6-Amino-2-butoxy-8-oxo-7,8-dihydro-9H-purin-9-yl)ethyl]thio}phenyl)acetic acid] | 205 to 207
25 | CCCCOc1nc(N)c2[nH]c(=O)n(CCNc3cccc(CC(=O)OC)c3)c2n1 [Example 2-41, Methyl (3-{[2-(6-amino-2-butoxy-8-oxo-7,8-dihydro-9H-purin-9-yl)ethyl]amino}phenyl)acetate] | 222 to 223
26 | CCCCOc1nc(N)c2[nH]c(=O)n(CCCNc3cccc(CC(=O)OC)c3)c2n1 [Example 2-42, Methyl (3-{[3-(6-amino-2-butoxy-8-oxo-7,8-dihydro-9H-purin-9-yl)propyl]amino}phenyl)acetate] | 208 to 209
27 | CCCCOc1nc(N)c2[nH]c(=O)n(CCCNc3cccc(CC(=O)O)c3)c2n1 [Example 2-43, (3-{[3-(6-Amino-2-butoxy-8-oxo-7,8-dihydro-9H-purin-9-yl)propyl]amino}phenyl)acetic acid] | 247
28 | CCCCOc1nc(N)c2[nH]c(=O)n(CCS(=O)(=O)c3cccc(CC(=O)OC)c3)c2n1 [Example 2-48, Methyl (3-{[2-(6-amino-2-butoxy-8-oxo-7,8-dihydro-9H-purin-9-yl)ethyl]sulfonyl}phenyl)acetate] | 246 to 247
29 | CCCCOc1nc(N)c2[nH]c(=O)n(CCN(C)Cc3cccc(CC(=O)O)c3)c2n1 [Example 2-50, (3-{[[2-(6-Amino-2-butoxy-8-oxo-7,8-dihydro-9H-purin-9-yl)ethyl](methyl)amino]methyl}phenyl)acetic acid] | 164 to 166
